Test results taken from ChEMBL document CHEMBL4483862, “Open-source discovery of chemical leads for next-generation chemoprotective antimalarials” (2018).

System: Plasmodium berghei
Test: Luciferase/luciferin-expressing antifolate-resistant parasites were used to infect a culture of HepG2 cells that were pre-incubated with compounds. Infected hepatocytes emit light due to the luciferase reaction. Assay results are presented as the percent inhibition of light emission compared to control. […]
Type: functional
Settings: sporozoite; for IC90: read-out: LUCIFERASE INFECTION ASSAY - IC90
[1] = read-out: LUCIFERASE INFECTION ASSAY - IC50

Row | SMILES | IC90 | other results
1 | COc1ccc(NC(C)=O)cc1Nc1nc(C(F)(F)F)nc2ccccc12 | > 10 µM | IC50 (HEPG2TOX_HILL_SLOPE 9.23, HEPG2TOX_R_SQUARED 0.863, PBLUC_HILL_SLOPE 3.13, PBLUC_R_SQUARED 0.379, read-out: LUCIFERASE INFECTION ASSAY - IC50): 6.22 µM
2 | CC(C)(C)c1cc(-c2csc(CS(=O)(=O)Cc3cccc(C(F)(F)F)c3)n2)cc(C(C)(C)C)c1O | > 6.28 µM | IC50 (FFLUC_HILL_SLOPE 261, FFLUC_R_SQUARED 0.0541, PBLUC_HILL_SLOPE 0.448, PBLUC_R_SQUARED 0.195, read-out: LUCIFERASE INFECTION ASSAY - IC50): > 6.28 µM
3 | CCc1ccc(CN(C)C(=O)c2cccc(S(=O)(=O)Nc3ccccc3OC)c2)cc1 | > 10 µM | IC50 (HEPG2TOX_HILL_SLOPE 2.04, HEPG2TOX_R_SQUARED 0.142, read-out: LUCIFERASE INFECTION ASSAY - IC50): > 10 µM
4 | COc1cc(/C=C/C(=O)Oc2c(Cl)cc(Cl)c3ccc(C)nc23)cc(OC)c1OC | 3.54 µM | IC50 (HEPG2TOX_HILL_SLOPE 1.48, HEPG2TOX_R_SQUARED 0.88, PBLUC_HILL_SLOPE 12.1, PBLUC_R_SQUARED 0.667, read-out: LUCIFERASE INFECTION ASSAY - IC50): 2.95 µM
5 | CC(C)(C)NC(=S)N/N=C/c1cc([N+](=O)[O-])ccc1O | 11.1 µM | IC50 (HEPG2TOX_HILL_SLOPE 9.08, HEPG2TOX_R_SQUARED 0.437, PBLUC_HILL_SLOPE 15.5, PBLUC_R_SQUARED 0.332, read-out: LUCIFERASE INFECTION ASSAY - IC50): 9.61 µM
6 | Cc1cc(C)c(S(=O)(=O)N2CCN(C(=O)CCCOc3ccc(Cl)c(C)c3)CC2)c(C)c1 | > 10 µM | IC50 [1]: > 10 µM
7 | N#C/C(=C\c1cn(Cc2ccccc2)nc1-c1cccnc1)c1nc2ccccc2[nH]1 | 8.82 µM | IC50 (PBLUC_HILL_SLOPE 2.49, PBLUC_R_SQUARED 0.607, read-out: LUCIFERASE INFECTION ASSAY - IC50): 3.65 µM
8 | O=C(Nc1ccc(N2CCCC2)cn1)c1cccc(Cl)c1 | 0.145 µM | IC50 (FFLUC_HILL_SLOPE 1.87, FFLUC_R_SQUARED 0.554, HEPG2TOX_HILL_SLOPE 1.22, HEPG2TOX_R_SQUARED 0.956, PBLUC_HILL_SLOPE 1.63, PBLUC_R_SQUARED 0.915, read-out: LUCIFERASE INFECTION ASSAY - IC50): 0.0377 µM
9 | COc1ccc(CCN2CSC(=S)N(CCc3ccc(OC)c(OC)c3)C2)cc1OC | > 7.13 µM | IC50 [1]: > 7.13 µM
10 | CN1/C(=C/C=C/c2ccc3ccccc3[n+]2C)C=Cc2ccccc21 | 2.78 µM | IC50 [1]: 2.47 µM
11 | CC(Sc1nnc2ccc(C(F)(F)F)cn12)C(=O)NCC1CCCO1 (stereo unspecified) | > 10 µM | IC50 [1]: > 10 µM
12 | O=C(Nc1ccccc1)c1ccccc1OCC(O)COCc1ccc(Cl)cc1 (stereo unspecified) | > 10 µM | IC50 [1]: > 10 µM
13 | O=C(c1[nH]nc2ccccc12)N1CCN(Cc2ccc(C(F)(F)F)cc2)CC1 | > 10 µM | IC50 (HEPG2TOX_HILL_SLOPE 2.95, HEPG2TOX_R_SQUARED 0.96, PBLUC_HILL_SLOPE 4.05, PBLUC_R_SQUARED 0.587, read-out: LUCIFERASE INFECTION ASSAY - IC50): 6.61 µM
14 | CNc1nc2cnc(Nc3ccc(OC(F)(F)F)cc3)cc2n1-c1cccc(C(F)(F)F)c1 | > 10 µM | IC50 (PBLUC_HILL_SLOPE 7.78, PBLUC_R_SQUARED 0.568, read-out: LUCIFERASE INFECTION ASSAY - IC50): 8 µM
15 | O=C(Nc1ccc(F)c(Cl)c1)c1[nH]nc2ccccc12 | > 10 µM | IC50 (FFLUC_HILL_SLOPE 1.67, FFLUC_R_SQUARED 0.554, PBLUC_HILL_SLOPE 0.29, PBLUC_R_SQUARED 0.519, read-out: LUCIFERASE INFECTION ASSAY - IC50): 0.104 µM
16 | Nc1nc2ccc(C(=O)N3CCN(C/C=C/c4ccccc4)CC3)cc2s1 | > 10 µM | IC50 (HEPG2TOX_HILL_SLOPE 1.29, HEPG2TOX_R_SQUARED 0.665, PBLUC_HILL_SLOPE 22.8, PBLUC_R_SQUARED 0.0313, read-out: LUCIFERASE INFECTION ASSAY - IC50): > 10 µM
17 | Cc1nn(-c2ccccc2)c(C)c1C(=O)ONC(=N)c1cccc(Cl)c1 | > 8.95 µM | IC50 (PBLUC_HILL_SLOPE 7.89, PBLUC_R_SQUARED 0.243, read-out: LUCIFERASE INFECTION ASSAY - IC50): 7.68 µM
18 | CNC(=O)C1CN(C(=O)c2oc3ccc(OC)cc3c2C)c2ccccc2O1 (stereo unspecified) | > 10 µM | IC50 (HEPG2TOX_HILL_SLOPE 21.4, HEPG2TOX_R_SQUARED 0.941, read-out: LUCIFERASE INFECTION ASSAY - IC50): > 10 µM
19 | CN1/C(=C\C=N\NC(=O)c2cccs2)C(C)(C)c2ccccc21 | 8.4 µM | IC50 (PBLUC_HILL_SLOPE 3.23, PBLUC_R_SQUARED 0.426, read-out: LUCIFERASE INFECTION ASSAY - IC50): 4.25 µM

Row | SMILES | IC90 | other results
20 | COc1ccc(-c2cnc3cnc(-c4ccsc4)cn23)cn1 | 9.71 µM | IC50 (PBLUC_HILL_SLOPE 12.3, PBLUC_R_SQUARED 0.383, read-out: LUCIFERASE INFECTION ASSAY - IC50): 8.12 µM
21 | CCCn1c(SCC(=O)Nc2cc(S(=O)(=O)N(CC)c3ccccc3)ccc2Cl)nc2ccccc2c1=O | > 10 µM | IC50 (FFLUC_HILL_SLOPE 3.64, FFLUC_R_SQUARED 0.239, PBLUC_HILL_SLOPE 6.57, PBLUC_R_SQUARED 0.539, read-out: LUCIFERASE INFECTION ASSAY - IC50): 8.45 µM
22 | CC1(c2ccco2)NC(=O)N(NC(=O)c2ccc3ccccc3n2)C1=O (stereo unspecified) | > 10 µM | IC50 [1]: > 10 µM
23 | Cc1ccc(Br)c(NS(=O)(=O)c2cccc(C(=O)Nc3cccc4c[nH]nc34)c2)c1 | > 10 µM | IC50 (FFLUC_HILL_SLOPE 12.1, FFLUC_R_SQUARED 0.239, PBLUC_HILL_SLOPE 20.2, PBLUC_R_SQUARED 0.144, read-out: LUCIFERASE INFECTION ASSAY - IC50): 9.98 µM
24 | CCOC(=O)c1ccc(NC(=S)N/N=C/c2ccccc2O)cc1 | 5.71 µM | IC50 (HEPG2TOX_HILL_SLOPE 1.84, HEPG2TOX_R_SQUARED 0.879, PBLUC_HILL_SLOPE 113, PBLUC_R_SQUARED 0.459, read-out: LUCIFERASE INFECTION ASSAY - IC50): 5.6 µM
25 | O=C(N/N=C/c1ccc(O)cc1O)c1ccc[n+]([O-])c1 | 0.362 µM | IC50 (PBLUC_HILL_SLOPE 3, PBLUC_R_SQUARED 0.854, read-out: LUCIFERASE INFECTION ASSAY - IC50): 0.174 µM
26 | O=C(Nc1nc2ccc(Oc3ccccc3)cc2s1)c1ccoc1 | > 10 µM | IC50 (HEPG2TOX_HILL_SLOPE 2.54, HEPG2TOX_R_SQUARED 0.824, PBLUC_HILL_SLOPE 3.93, PBLUC_R_SQUARED 0.329, read-out: LUCIFERASE INFECTION ASSAY - IC50): 7.66 µM
27 | CS(=O)(=O)c1nc2ccccc2n1Cc1cc(=O)n2ccccc2n1 | > 10 µM | IC50 (PBLUC_HILL_SLOPE 1.24, PBLUC_R_SQUARED 0.679, read-out: LUCIFERASE INFECTION ASSAY - IC50): 5.51 µM
28 | CC(=O)Nc1ccc(Nc2cc3[nH]c(-c4cccc(F)c4)cc3cn2)cc1 | 9.16 µM | IC50 (PBLUC_HILL_SLOPE 3.2, PBLUC_R_SQUARED 0.299, read-out: LUCIFERASE INFECTION ASSAY - IC50): 4.6 µM
29 | Nc1nc(SCC(=O)NC2CCCc3ccccc32)nc2sccc12 (stereo unspecified) | > 10 µM | IC50 (PBLUC_HILL_SLOPE 8.94, PBLUC_R_SQUARED 0.274, read-out: LUCIFERASE INFECTION ASSAY - IC50): 9.02 µM
30 | COC(=O)c1c(NC(=O)c2cccnc2)c2cc(NCC3CCCCC3)cnc2n1Cc1ccccc1 | > 6.63 µM | IC50 (HEPG2TOX_HILL_SLOPE 17.8, HEPG2TOX_R_SQUARED 0.594, PBLUC_HILL_SLOPE 8.22, PBLUC_R_SQUARED 0.247, read-out: LUCIFERASE INFECTION ASSAY - IC50): 5.43 µM
31 | Cc1ccc(NNC(=O)c2cnc3c(c2)c(C)nn3C)cc1Cl | > 10 µM | IC50 (PBLUC_HILL_SLOPE 2.54, PBLUC_R_SQUARED 0.422, read-out: LUCIFERASE INFECTION ASSAY - IC50): 7.03 µM
32 | Cn1c(CSc2cccs2)n[nH]c1=S | > 13.6 µM | IC50 (FFLUC_HILL_SLOPE 40, FFLUC_R_SQUARED 0.0342, read-out: LUCIFERASE INFECTION ASSAY - IC50): > 13.6 µM
33 | COc1cc(-c2ccnc3n[nH]c(-c4ccccc4)c23)cc(OC)c1OC | > 10 µM | IC50 [1]: 3.13 µM
34 | CCc1cccc2c(C(=O)COC(=O)c3ccc(S(C)(=O)=O)c([N+](=O)[O-])c3)c[nH]c12 | 6.57 µM | IC50 (FFLUC_HILL_SLOPE 0.275, FFLUC_R_SQUARED 0.382, HEPG2TOX_HILL_SLOPE 0.775, HEPG2TOX_R_SQUARED 0.837, PBLUC_HILL_SLOPE 46.1, PBLUC_R_SQUARED 0.262, read-out: LUCIFERASE INFECTION ASSAY - IC50): 6.27 µM
35 | CN(Cc1ccc(C(=O)NC2CC2)cc1)c1ncccc1[N+](=O)[O-] | 6.56 µM | IC50 (PBLUC_HILL_SLOPE 96.1, PBLUC_R_SQUARED 0.262, read-out: LUCIFERASE INFECTION ASSAY - IC50): 6.41 µM
36 | O=C1/C(=C/c2cc(Cl)ccc2O)NC(=S)N1Cc1ccccc1Cl | 1.37 µM | IC50 (HEPG2TOX_HILL_SLOPE 1.93, HEPG2TOX_R_SQUARED 0.989, PBLUC_HILL_SLOPE 8.09, PBLUC_R_SQUARED 0.926, read-out: LUCIFERASE INFECTION ASSAY - IC50): 1.05 µM
37 | O=C(NNC(=O)c1cccn1-c1ccc(F)cc1)Nc1ccc(Cl)c(Cl)c1 | 7.62 µM | IC50 (PBLUC_HILL_SLOPE 3.35, PBLUC_R_SQUARED 0.178, read-out: LUCIFERASE INFECTION ASSAY - IC50): 3.96 µM
38 | CN(Cc1cnn(Cc2ccccc2)c1)C(=O)c1cccc(S(=O)(=O)N2CCc3ccccc32)c1 | 9.38 µM | IC50 (HEPG2TOX_HILL_SLOPE 1.04, HEPG2TOX_R_SQUARED 0.954, PBLUC_HILL_SLOPE 3.29, PBLUC_R_SQUARED 0.175, read-out: LUCIFERASE INFECTION ASSAY - IC50): 4.81 µM
